From patent US20230065158A1, “OXABICYCLOHEPTANES FOR TREATMENT OF SMALL CELL LUNG CANCER” (Lixte Biotechnology, Inc., priority 2021, published 2023)

Experiments:
H524 and H69 cells = test: Whole cell Pt accumulation, ICP-MS; format: cell-based; settings: LB100 pretreatment then carboplatin 4 hours, versus carboplatin alone
Protocol: FIGS. 3A-3H depict SCLC cell invasion through HUVEC monolayer. FIGS. 3A-3D: Graphical representation of H524/H69 cell ability to disrupt a confluent HUVEC monolayer using an electrical substrate-impedance sensing system. Arrows indicate time point when cells were added. Inserts show mean values and SD for each group after 20 h of drug treatment. After treatment, cell viability was counted using an Auto T4 Cell Counter (Nexcelom Cellometer). Cell viability was 90-95% for drug-treated groups (n=2). p<0.001 (***) for control (untreated cells) vs. drug combination (LB100/carboplatin). Whole cell Pt accumulation. Graphical representation of LB-100 effect on platinum uptake by SCLC cells. […]
To this end, platinum (Pt) levels were measured in H524 and H69 cells using Inductively Coupled Plasma Mass Spectrometry (ICP-MS). […]
Samples were prepared and analyzed for Pt concentrations at the Isotoparium (California Institute of Technology), using precleaned Teflon beakers (PFA), Optima grade reagents (Fisher Chemical) and 18.2 MΩ Milli-Q water. […] All samples were analyzed using an iCAP RQ (ThermoFisher, Waltham, Mass.) ICP-MS and an SC-2 DX autosampler (Elemental Scientific, Omaha, Nebr.). […] A Pt standard curve (0.001, 0.01, 0.1, 1.0 ppb, Spex Certiprep Assurance, Lot #24-140PTM) was created using the HNO3 stock solution and measured for sample calibration. […]

H446 spheroids = H446 spheroids with drugs and T cells, live imaging; format: cell-based; settings: without T cells, 48 h
Protocol: FIGS. 7A-7G depict results of T cells infiltration in H446 spheroids in the presence of LB100 and atezolizumab. FIG. 7A: Schematic of the effect of activated T cells on H446 spheroid degradation. At time point 0, single spheroids in 96 well plate were treated with LB-100, atezolizumab and T cells. Beads mimic in vivo T cell activation by two action signals CD3 and CD28. IncuCyte® Live-Cell Analysis System was used for the spheroidal imaging. Right panel presents spheroidal degeneration after 48 h incubation with LB-100, atezolizumab and activated T cells. FIGS. 7B and 7C: Automated image analysis provides metrics (0 h-μm, […]) and spheroid area (yellow-bright field mask). Column bars present mean values of spheroids at 0h. Representative images in bright field mask. […]
Cytotoxic CD8+ cells were isolated from whole blood, buffy coat of healthy donors following the protocol described in the Methods. […] Spheroid survival was monitored for 48 hours and their diameters were measured from phase contrast images. […]
H446 were generated as described in Materials and Methods (Monitoring of spheroid growth and cytotoxicity with the IncuCyte® Live-Cell Analysis System and IncuCyte® Cytotox reagent) following incubation with T cells and drugs. The effect of LB100 and atezolizumab in the presence of T cells was monitored with IncuCyte 3D Multi-Tumor Spheroid assay.

In the case of `C[NH+]1CCN(C(=O)C2C(C(=O)O)[C@H]3CC[C@@H]2O3)CC1` (stereo in doubt) [LB-100, 3-[(4-Methylpiperazin-1-yl)carbonyl]-7-oxabicyclo[2.2.1]heptane-2-carboxylic acid], the “Pt level in cells” value (H524 and H69 cells) is reported as “enhanced the uptake of Pt” and the “effect on spheroids (degeneration), drug alone” value (H446 spheroids) is reported as “moderate effect”.
